Data reported in patent US7855166B2, “Sulfonylamino(thio)carbonyl compounds” (Bayer Cropscience GmbH, priority 2005, dated 2010).

Experiments:
[1] = system: weed plants such as Sinapis alba, Chrysanthemum segetum, Avena sativa, Stellaria media, Echinochloa crus-galli, Lolium multiflorum, Setaria viridis, Abutilon …; assay: Pre-emergence effect on weeds (greenhouse pot test, visual scoring); type: in vivo; details: applied pre-emergence at a rate of 0.3 kg or less of active substance per hectare; scored after 3 to 4 weeks in comparison to untreated controls
[2] = system: weed plants such as Sinapis alba, Echinochloa crus-galli, Lolium multiflorum, Chrysanthemum segetum, Setaria viridis, Abutilon theophrasti, Amaranthus …; assay: Post-emergence effect on weeds (greenhouse pot test, visual scoring); type: in vivo; details: applied post-emergence (three-leaf stage) at a rate of 0.3 kg or less of active substance per hectare; scored after about 3 to 4 weeks in comparison to untreated controls

Structure (SMILES) | herbicidal action against weed plants (visual scoring of plant damage or emergence damage) [1] | herbicidal action against weed plants (effect scored visually) [2]
CCOc1nn(C(=O)NS(=O)(=O)c2c(F)cccc2I)c(=O)n1C1CC1 [Compound 1.027] | very good herbidical action | very good herbicidal action
CC(C)Oc1nn(C(=O)NS(=O)(=O)c2c(I)cccc2OS(=O)(=O)N(C)C)c(=O)n1C [Compound 1.752] | very good herbidical action | very good herbicidal action
CCCOc1nn(C(=O)NS(=O)(=O)c2c(C)cccc2I)c(=O)n1C [Compound 1.039] | very good herbidical action | very good herbicidal action
CCCOc1nn(C(=O)NS(=O)(=O)c2c(Cl)cc(C(F)(F)F)cc2I)c(=O)n1C1CC1 [Compound 1.848] | very good herbidical action | very good herbicidal action
CCCOc1cccc(I)c1S(=O)(=O)NC(=O)n1nc(SCC)n(C)c1=O [Compound 1.237] | very good herbidical action | very good herbicidal action
CCOc1nn(C(=O)NS(=O)(=O)c2c(I)cccc2C(F)(F)F)c(=O)n1C1CC1 [Compound 1.143] | very good herbidical action | very good herbicidal action
Cc1cccc(I)c1S(=O)(=O)NC(=O)n1nc(C2CC2)n(C2CC2)c1=O [Compound 1.815] | very good herbidical action | very good herbicidal action
CCCOc1nn(C(=O)NS(=O)(=O)c2ccc(CCC)cc2I)c(=O)n1C1CC1 [Compound 1.882] | very good herbidical action | very good herbicidal action
CCCOc1nn(C(=O)NS(=O)(=O)c2c(Cl)cc(C(F)(F)F)cc2I)c(=O)n1C [Compound 1.844] | very good herbidical action | very good herbicidal action
CCCc1ccc(S(=O)(=O)NC(=O)n2nc(OC(C)C)n(C)c2=O)c(I)c1 [Compound 1.879] | very good herbidical action | very good herbicidal action
CCCOc1cccc(I)c1S(=O)(=O)NC(=O)n1nc(OCCC)n(C2CC2)c1=O [Compound 1.244] | very good herbidical action | very good herbicidal action
CCOc1nn(C(=O)NS(=O)(=O)c2c(I)cccc2OS(C)(=O)=O)c(=O)n1C1CC1 [Compound 1.717] | very good herbidical action | very good herbicidal action
CC(C)Oc1nn(C(=O)NS(=O)(=O)c2c(I)cccc2OC(F)F)c(=O)n1C [Compound 1.465] | very good herbidical action | very good herbicidal action
COc1nn(C(=O)NS(=O)(=O)c2c(C)cccc2I)c(=O)n1C [Compound 1.037] | very good herbidical action | very good herbicidal action
CCCCOc1cccc(I)c1S(=O)(=O)NC(=O)n1nc(OC(C)C)n(C)c1=O [Compound 1.276] | very good herbidical action | very good herbicidal action
CCOc1nn(C(=O)NS(=O)(=O)c2cc(C(F)(F)F)ccc2I)c(=O)n1C [Compound 1.836] | very good herbidical action | very good herbicidal action
